Results on 13 compounds are retold here after patent US5376679A, “Bicyclic or tricyclic biocidal compounds” (Shell Internationale Research Maatschappij B.V., priority 1988, dated 1994).

The subject of one test is Chaetomium globosum. Briefly: Minimum inhibitory concentration, Chaetomium globosum (Chg). Format: cell-based. The method, boiled down: (§1)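 Conidial inocula (5×10^5 conidia/ml) in potato dextrose broth were exposed to compound at final 5, 10, 50 and 100 ppm in duplicate wells. Plates sat in the dark at 30° C and growth was scored at 3, 7 and 10 days; MIC taken as lowest concentration without growth.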

The next test concerns Bacillus subtilis. The experiment in a line: Minimum inhibitory concentration, Bacillus subtilis (Bs). To be noted: 30° C., 24 and 72 hours. Format: cell-based. The essentials: (§2)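 Bacteria grown 24 h at 30 °C in tryptone soya broth, diluted 1:100 as inoculum. Compound solution (0.3 ml of 50, 100, 500 or 1000 ppm) mixed with 2.7 ml inoculum in duplicate wells, incubated in the dark at 30 °C; growth scored visually at 24 and 72 h to give MIC.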

Another test concerns Saccharomyces cerevisiae. Briefly: Minimum inhibitory concentration, yeast (Sc). To be noted: 30° C., 24 and 72 hours. It is filed as cell-based, Saccharomyces cerevisiae (ATCC 9763). The essentials:
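S. cerevisiae inoculum in yeast malt broth exposed to compound at final 5, 10, 50 and 100 ppm in duplicate wells. Plates kept in the dark at 30° C and scored for growth at 24 and 72 hours; MIC taken as lowest concentration without growth.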

The subject of a further test is Fusarium culmorum. Briefly: Activity against seedling wheat blight, soil drench (Fs). Particulars: 10 kg/ha, 21 days, activity grade 1 or 2, not defined. It is filed as in vivo. More on the design: scale not given here. The essentials: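 Wheat seeds (var Waggoner) soaked 6 h at 22° C in 7×10^5 spores/ml, sown in sand; 1 day later soil drench at 10 kg/ha (0.36 g/l in 12% v/v acetone/water). Glasshouse at 25° C; at 21 days, stem-base and upper-root lesions scored visually against control seedlings.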

The test system of another test is Cladosporium resinae. Briefly: Minimum inhibitory concentration, Cladosporium resinae (Cr). It is filed as cell-based. To be noted: Amorphotheca resinae, 30° C., 3, 7 and 10 days. The method, boiled down: as §1
The subject of a further test is Aspergillus niger. The experiment in a line: Minimum inhibitory concentration, Aspergillus niger (An). To be noted: 30° C., 3, 7 and 10 days. Format: cell-based, Aspergillus niger (CMI 17454). The essentials: as §1
In the next test the test system is Desulfovibrio sp. The experiment in a line: Minimum inhibitory concentration, sulphate-reducing bacteria (Dsp). Format: cell-based. Particulars: 30° C., 2, 5 and 10 days. The essentials: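 Desulfovibrio sp. grown 48 h at 30 °C in modified Postgate's Medium B (pH 7.8) served as inoculum into duplicate compound dilution series (100 ppm) in the same medium. Incubated at 30 °C; growth scored as ferrous sulphide blackening at 2, 5 and 10 days to give MIC.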

For another test, the system named is Staphylococcus aureus. Briefly: Minimum inhibitory concentration, Staphylococcus aureus (Sa). It is filed as cell-based, Staphylococcus aureus (NCIB 6571). To be noted: 30° C., 24 and 72 hours. The method, boiled down: as §2
Test [1] relates to Pseudocercosporella herpotrichoides. Briefly: In vitro activity against wheat eyespot (Ph). More on the design: Ph: activity against wheat eyespot: scale not given here. To be noted: in vitro, 100 ppm in agar, 11 days; activity grade 1 or 2, not defined. It is filed as cell-based. The essentials: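 Compound was dispersed from acetone into half-strength potato dextrose agar at 100 ppm final. Two 5 mm mycelial plugs were placed on each plate, which was incubated 11 days at 20–22 °C in darkness. Diametric growth minus plug width was compared with acetone-only agar.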

For another test, the system named is Escherichia coli. Briefly: Minimum inhibitory concentration, Escherichia coli (Ec). Format: cell-based, Escherichia coli (NCIB 9517). To be noted: 30° C., 24 and 72 hours. The method, boiled down:
as §2

The term MIC denotes the least concentration at which growth counts as inhibited.

Values after ≈ are worked out from the molar mass of the structure shown.

For `CC1Oc2c(cccc2[N+]([O-])=NC#N)C1C` (stereo not drawn) [Example 9], the MIC against Chaetomium globosum (30° C., 3, 7 and 10 days) is 50 µg/mL (≈ 230 µM); in the test on Bacillus subtilis it was 50 µg/mL (≈ 230 µM); in the test on Saccharomyces cerevisiae it was 50 µg/mL (≈ 230 µM); with Cladosporium resinae, 25 µg/mL (≈ 115 µM); in the test on Aspergillus niger, 25 µg/mL (≈ 115 µM); with Desulfovibrio sp., 100 µg/mL (≈ 460 µM). For the same compound, the MIC with Staphylococcus aureus and against Escherichia coli was over 100 µg/mL each time. Also, the “Fs: activity against seedling wheat blight” value (shortened to “Fs: activity”) in the test with Fusarium culmorum worked out at 2. The “Ph: activity against wheat eyespot” value in [1] is on record as 2.

Take `N#CN=[N+]([O-])c1cc(Cl)cc2c1OC(CCl)C2` (stereo not drawn) [Example 10]: the minimum inhibitory concentration (MIC) was under 100 µg/mL with Chaetomium globosum (*only tested at 100 ppm); over 100 µg/mL against Bacillus subtilis; over 100 µg/mL in the test with Saccharomyces cerevisiae; 25 µg/mL (≈ 91.9 µM) in the test on Cladosporium resinae; 25 µg/mL (≈ 91.9 µM) against Aspergillus niger; 100 µg/mL (≈ 368 µM) in the test with Desulfovibrio sp.. The minimum inhibitory concentration (MIC) in the test with Staphylococcus aureus and in the test on Escherichia coli was over 100 µg/mL each time. In the test with Fusarium culmorum, the “Fs: activity” value is given as 2. The “Ph: activity against wheat eyespot” value in [1] is listed as 2.

As for `N#CN=[N+]([O-])c1cccc2c3c(oc12)CCCC3` [Example 17], the MIC with Chaetomium globosum (30° C., 3, 7 and 10 days) was under 100 µg/mL; in the test with Bacillus subtilis, over 100 µg/mL; with Saccharomyces cerevisiae, 50 µg/mL (≈ 207 µM); in the test on Cladosporium resinae it was 25 µg/mL (≈ 104 µM); in the test with Aspergillus niger, under 5 µg/mL; against Desulfovibrio sp., over 100 µg/mL. Moreover, the values for the MIC against Staphylococcus aureus and in the test with Escherichia coli were 100 µg/mL (≈ 415 µM) and over 100 µg/mL, respectively. For the same compound, the “Fs: activity” value in the test on Fusarium culmorum was 2. In addition, the “Ph: activity against wheat eyespot” value in test [1] is on record as 1.

On to `N#CN=[N+]([O-])c1cc(Cl)cc2c1OC(CO)C2` (stereo not drawn) [Example 11], for which the MIC against Chaetomium globosum (30° C., 3, 7 and 10 days) was determined as 25 µg/mL (≈ 98.6 µM); in the test on Bacillus subtilis it was 25 µg/mL (≈ 98.6 µM); against Saccharomyces cerevisiae, 100 µg/mL (≈ 394 µM); against Cladosporium resinae, 50 µg/mL (≈ 197 µM); with Aspergillus niger it was 25 µg/mL (≈ 98.6 µM); with Desulfovibrio sp., 100 µg/mL (≈ 394 µM). Further, the MIC against Staphylococcus aureus and against Escherichia coli was 100 µg/mL (≈ 394 µM) throughout. Further, the “Fs: activity” value in the test with Fusarium culmorum came out at 2. Also, the “Ph: activity against wheat eyespot” value in [1] is listed as 2.

As to `N#CN=[N+]([O-])c1ccc2oc(=O)ccc2c1` [Example 1], the minimal inhibitory concentration (MIC) was 10 µg/mL (≈ 46.5 µM) with Chaetomium globosum (30° C., 3, 7 and 10 days); 50 µg/mL (≈ 232 µM) against Bacillus subtilis; 5 to 25 µg/mL (≈ 23.2 to 116 µM) in the test on Saccharomyces cerevisiae; 25 to 50 µg/mL (≈ 116 to 232 µM) in the test with Cladosporium resinae; 25 µg/mL (≈ 116 µM) with Aspergillus niger; 25 µg/mL (≈ 116 µM) against Desulfovibrio sp.. In addition, the MIC with Staphylococcus aureus and with Escherichia coli was over 100 µg/mL in each case. Further, in the test on Fusarium culmorum, the “Fs: activity” value is given as 2. Further, the “Ph: activity against wheat eyespot” value in test [1] amounted to 2.

With `Cc1cc2cc([N+]([O-])=NC#N)ccc2o1` [Example 23], the MIC with Chaetomium globosum (*only tested at 100 ppm) was under 100 µg/mL; against Bacillus subtilis it was 50 µg/mL (≈ 249 µM); with Saccharomyces cerevisiae, 25 µg/mL (≈ 124 µM); in the test on Cladosporium resinae it was 25 µg/mL (≈ 124 µM); against Aspergillus niger it was 25 µg/mL (≈ 124 µM); in the test with Desulfovibrio sp., 100 µg/mL (≈ 497 µM). The MIC against Staphylococcus aureus and in the test on Escherichia coli was over 100 µg/mL in each case. For the same compound, the “Fs: activity” value with Fusarium culmorum is 2. Moreover, the “Ph: activity against wheat eyespot” value in [1] is 1.

For the compound `CC1Cc2cc(Cl)cc([N+]([O-])=NC#N)c2O1` (stereo not drawn) [Example 6], the minimal inhibitory concentration (MIC) against Chaetomium globosum (30° C., 3, 7 and 10 days) came out at 25 µg/mL (≈ 105 µM); against Bacillus subtilis it was 100 µg/mL (≈ 421 µM); against Saccharomyces cerevisiae, 25 µg/mL (≈ 105 µM); in the test on Cladosporium resinae, 25 µg/mL (≈ 105 µM); against Aspergillus niger, 25 µg/mL (≈ 105 µM); with Desulfovibrio sp. it was 100 µg/mL (≈ 421 µM). Also, the figures for the MIC against Staphylococcus aureus and against Escherichia coli were 100 µg/mL (≈ 421 µM) and over 100 µg/mL, respectively. Further, the “Fs: activity” value in the test on Fusarium culmorum is 2. Besides, the “Ph: activity against wheat eyespot” value in test [1] was found to be 2.

Regarding `Cc1cc2cccc([N+]([O-])=NC#N)c2o1` [Example 16], the MIC is over 100 µg/mL against Bacillus subtilis; 100 µg/mL (≈ 497 µM) with Saccharomyces cerevisiae; over 100 µg/mL in the test on Cladosporium resinae; 50 µg/mL (≈ 249 µM) with Aspergillus niger; 50 to 100 µg/mL (≈ 249 to 497 µM) in the test on Desulfovibrio sp.; over 100 µg/mL with Staphylococcus aureus. This compound also yielded an MIC in the test on Escherichia coli of over 100 µg/mL. For the same compound, in the test on Fusarium culmorum, the “Fs: activity” value is on record as 1. The “Ph: activity against wheat eyespot” value in test [1] stood at 1.

Consider `N#CN=[N+]([O-])c1cc(Cl)cc2c1OCC=C2` [Example 26], for which the MIC is 50 µg/mL (≈ 212 µM) with Chaetomium globosum (30° C., 3, 7 and 10 days); 50 µg/mL (≈ 212 µM) in the test on Bacillus subtilis; over 100 µg/mL in the test on Saccharomyces cerevisiae; 25 to 100 µg/mL (≈ 106 to 424 µM) against Cladosporium resinae; 25 to 50 µg/mL (≈ 106 to 212 µM) against Aspergillus niger; 100 µg/mL (≈ 424 µM) against Desulfovibrio sp.. For the same compound, the figures for the MIC in the test on Staphylococcus aureus and in the test with Escherichia coli were 100 µg/mL (≈ 424 µM) and over 100 µg/mL, respectively. For the same compound, the “Fs: activity” value in the test on Fusarium culmorum was determined as 2. For the same compound, in test [1], the “Ph: activity against wheat eyespot” value is 1.

`CC1(C)Cc2cc(Cl)cc([N+]([O-])=NC#N)c2O1` [Example 4]: the MIC was over 100 µg/mL against Chaetomium globosum (30° C., 3, 7 and 10 days); 50 µg/mL (≈ 199 µM) against Bacillus subtilis; over 100 µg/mL against Saccharomyces cerevisiae; 25 µg/mL (≈ 99.3 µM) in the test with Cladosporium resinae; 100 µg/mL (≈ 397 µM) against Aspergillus niger; over 100 µg/mL against Desulfovibrio sp.. Besides, the MIC against Staphylococcus aureus is 100 µg/mL (≈ 397 µM); in the test with Escherichia coli it was over 100 µg/mL. Moreover, the “Fs: activity” value in the test on Fusarium culmorum was found to be 2. In addition, the “Ph: activity against wheat eyespot” value in [1] is 2.

For `CC1(C)C=Cc2cc(F)cc([N+]([O-])=NC#N)c2O1` [Example 29], the MIC in the test on Chaetomium globosum (30° C., 3, 7 and 10 days) is 5 to 100 µg/mL (≈ 20.2 to 404 µM); in the test on Bacillus subtilis, 100 µg/mL (≈ 404 µM); against Saccharomyces cerevisiae it was 50 µg/mL (≈ 202 µM); against Cladosporium resinae it was 50 to 100 µg/mL (≈ 202 to 404 µM); against Aspergillus niger, 25 to 100 µg/mL (≈ 101 to 404 µM); against Desulfovibrio sp. it was over 100 µg/mL. Also, the MIC in the test with Staphylococcus aureus and with Escherichia coli was over 100 µg/mL throughout. Moreover, in the test on Fusarium culmorum, the “Fs: activity” value was determined as 2. Besides, the “Ph: activity against wheat eyespot” value in [1] was found to be 2.

For the compound `CC1Oc2c(cc(Cl)cc2[N+]([O-])=NC#N)C1C` (stereo not drawn) [Example 5], the MIC was 5 to 25 µg/mL (≈ 19.9 to 99.3 µM) against Chaetomium globosum (30° C., 3, 7 and 10 days); 100 µg/mL (≈ 397 µM) with Bacillus subtilis; 50 µg/mL (≈ 199 µM) against Saccharomyces cerevisiae; 25 µg/mL (≈ 99.3 µM) against Cladosporium resinae; 10 µg/mL (≈ 39.7 µM) with Aspergillus niger; over 100 µg/mL in the test on Desulfovibrio sp.. Further, the MIC with Staphylococcus aureus and against Escherichia coli was over 100 µg/mL throughout. Besides, in the test on Fusarium culmorum, the “Fs: activity” value is reported as 2. For the same compound, in test [1], the “Ph: activity against wheat eyespot” value is 2.

Turning to `Cc1oc2c([N+]([O-])=NC#N)cccc2c1C` [Example 18], the MIC with Chaetomium globosum (30° C., 3, 7 and 10 days) is 100 µg/mL (≈ 465 µM); against Bacillus subtilis it was over 100 µg/mL; against Saccharomyces cerevisiae, 100 µg/mL (≈ 465 µM); against Cladosporium resinae it was 100 µg/mL (≈ 465 µM); in the test with Aspergillus niger, 100 µg/mL (≈ 465 µM); in the test with Desulfovibrio sp., over 100 µg/mL. In addition, the values for the MIC in the test on Staphylococcus aureus and in the test on Escherichia coli were 5 µg/mL (≈ 23.2 µM) and over 100 µg/mL, respectively. The “Fs: activity” value with Fusarium culmorum worked out at 2. The “Ph: activity against wheat eyespot” value in test [1] came to 1.
